Source: patent US11078192B2, “Aromatic acetylene or aromatic ethylene compound, intermediate, preparation method, pharmaceutical composition and use thereof” (GUANGZHOU MAXINOVEL PHARMACEUTICALS CO., LTD., priority 2016, dated 2021)

Biological target: PD-1/PD-L1 (Homo sapiens (Human), UniProt Q9NZQ7)
Test: Homogeneous Time-Resolved Fluorescence (HTRF) binding assay
Settings: CisBio kit #64CUS000C-1, read-out: IC50 of compounds binding to PD-1/PD-L1
Description: Homogeneous Time-Resolved Fluorescence (HTRF) binding assay was used to determine the binding activity of the compound of the present invention to PD-1/PD-L1.
The purchased kit (CisBio, #64CUS000C-1) contained reagents required for assays such as PD-1, PD-L1, anti-tag1-Eu, Anti-tag2-XL665, Dilute Buffer, and Detection Buffer.
1. The compound was formulated to 10 concentrations with a 3-fold gradient with 100% DMSO.
2. The solution of the compound in DMSO was added to Dilute Buffer, mixed thoroughly, then transferred to a 96-well plate.
3. PD-L1 was diluted with Dilute Buffer, then added to the above 96-well plate.
4. PD-1 was diluted with Dilute Buffer and added to the above 96-well plate, which was then incubated at room temperature for 30 minutes.
5. A portion of anti-tag1-Eu and a portion of anti-tag2-XL665 were added to Detection Buffer, mixed thoroughly and transferred to the above 96-well plate.
6. The mixture in the above 96-well plate was incubated at room temperature for 1 to 24 hours.
7. HTRF values were read with Envision.

Chain of PD-1/PD-L1 (Q9NZQ7 19-238): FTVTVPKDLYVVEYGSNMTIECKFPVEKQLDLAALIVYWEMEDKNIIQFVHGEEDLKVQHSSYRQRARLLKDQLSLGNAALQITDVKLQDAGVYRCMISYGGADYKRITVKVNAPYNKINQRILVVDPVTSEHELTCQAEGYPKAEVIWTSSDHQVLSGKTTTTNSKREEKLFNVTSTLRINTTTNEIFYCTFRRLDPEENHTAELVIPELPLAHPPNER

SMILES | IC50 [µM]
Cc1cc(/C=C/c2cccc(-c3ccc4c(c3)OCCO4)c2C)cc(OCc2cccc(C#N)c2)c1CN1CCC[C@H]1CO [Compound 1, (S,E)-3-((5-(3-(2,3-Dihydrobenzo[b][1,4]dioxin-6-yl)-2-methylstyryl)-2-((2-(hydroxymethyl)pyrrolidin-1-yl)methyl)-3-methylphenoxy)methyl)benzonitrile] | 1.53
COc1cc(/C=C/c2cccc(-c3ccccc3)c2C)cc(OC)c1CN1CCC[C@H]1CO [Compound 3, (S,E)-(1-(2,6-Dimethoxy-4-((2-methylbiphenyl-3-yl)vinyl)benzyl)pyrrolidin-2-yl)methanol] | 2.7
COc1cc(/C=C/c2cccc(-c3ccccc3)c2C)cc(OC)c1CNCCO [Compound 4, (E)-2-((2,6-Dimethoxy-4-(2-(2-methylbiphenyl-3-yl)vinyl)benzyl)amino)ethan-1-ol] | 0.28
COc1cc(/C=C/c2cccc(-c3ccccc3)c2C)cc(OC)c1CNC(CO)CO [Compound 5, (E)-2-((2,6-Dimethoxy-4-(2-(2-methylbiphenyl-3-yl)vinyl)benzyl)amino)propane-1,3-diol] | 0.06
COc1cc(/C=C/c2cccc(-c3ccccc3)c2C)cc(OC)c1CNCCNC(C)=O [Compound 6, (E)-N-(2-((2,6-Dimethoxy-4-(2-(2-methylbiphenyl-3-yl)vinyl)benzyl)amino)ethyl)acetamide] | 0.15
Cc1cc(CN[C@H](C)C(=O)O)ccc1/C=C/c1cccc(-c2ccccc2)c1C [Compound 13, (R,E)-2-(3-Methyl-4-(2-(2-methylbiphenyl-3-yl)vinyl)benzylamino)propanoic Acid] | 0.24
COc1cc(/C=C/c2cccc(-c3ccccc3)c2C#N)cc(OC)c1CN1CCC[C@H]1CO [Compound 14, (S,E)-3-(4-((2-Hydroxymethylpyrrolidin-1-yl)methyl)-3,5-dimethoxystyryl)biphenyl-2-carbonitrile] | 0.39
COc1cc(/C=C/c2cccc(-c3ccc4c(c3)OCCO4)c2C)cc(OC)c1CN1CCC[C@H]1CO [Compound 15] | 0.24
Cc1c(/C=C/c2ccc(CN3CCC[C@H]3CO)cn2)cccc1-c1ccccc1 [Compound 16, (S,E)-(1-((6-(2-(2-Methylbiphenyl-3-yl)vinyl)pyridin-3-yl)methyl)pyrrolidin-2-yl)methanol] | 0.59
Cc1c(/C=C/c2ccc(CNCCO)cn2)cccc1-c1ccc2c(c1)OCCO2 [Compound 17, (E)-2-((6-(3-(2,3-Dihydrobenzo[b][1,4]dioxin-6-yl)-2-methylstyryl)pyridin-3-yl)methylamino)ethanol] | 0.31
Cc1c(/C=C/c2ccc(CNCC(O)CC(=O)O)cn2)cccc1-c1ccc2c(c1)OCCO2 (stereo not shown) [Compound 18, (E)-4-((6-(3-(2,3-Dihydrobenzo[b][1,4]dioxin-6-yl)-2-methylstyryl)pyridin-3-yl)methylamino)-3-hydroxybutanoic Acid] | 0.19
COC(=O)C1C(O)CCCN1Cc1c(OC)cc(/C=C/c2cccc(-c3ccccc3)c2C)cc1OC (stereo not shown) [Compound 25, (E)-Methyl 1-(2,6-dimethoxy-4-(2-(2-methylbiphenyl-3-yl)vinyl)benzyl)-3-hydroxypiperidin-2-carboxylate] | 5.95
Cc1cc(CNC(CO)CO)ccc1/C=C/c1cccc(-c2ccccc2)c1C [Compound 31, (E)-2-(3-Methyl-4-(2-(2-methylbiphenyl-3-yl)vinyl)benzylamino)-1,3-propanediol] | 0.24
Cc1c(/C=C/c2ccc(CNC(CO)CO)cc2Cl)cccc1-c1ccccc1 [Compound 32, (E)-2-(3-Chloro-4-(2-(2-methylbiphenyl-3-yl)vinyl)benzylamino)-1,3-propanediol] | 0.25

Second part, the molecule after the results:

IC50 [µM] | SMILES
1.34 | COc1cc(C#Cc2cccc(-c3ccccc3)c2C)cc(OC)c1CN1CCC[C@H]1CO [Compound 2, (S)-(1-(2,6-Dimethoxy-4-((2-methyl-biphenyl-3-yl)ethynyl)benzyl)pyrrolidin-2-yl)methanol]
0.46 | Cc1c(/C=C/c2ccc(CN3CCC[C@H]3CO)cc2Cl)cccc1-c1ccccc1 [Compound 11, (S,E)-(1-(3-Chloro-4-(2-(2-methylbiphenyl-3-yl)vinyl)benzyl)pyrrolidin-2-yl)methanol]
0.41 | Cc1cc(CN2CCC[C@H]2CO)ccc1/C=C/c1cccc(-c2ccccc2)c1C [Compound 12]
0.33 | Cc1cc(CN2CCCC(O)C2C(=O)O)ccc1/C=C/c1cccc(-c2ccccc2)c1C (stereo not shown) [Compound 19, (E)-3-Hydroxy-1-(3-methyl-4-(2-(2-methylbiphenyl-3-yl)vinyl)benzyl)piperidin-2-carboxylic Acid]
> 10 | COC(=O)C1C(O)CCCN1Cc1ccc(/C=C/c2cccc(-c3ccccc3)c2C)c(Cl)c1 (stereo not shown) [Compound 20, (E)-Methyl 1-(3-chloro-4-(2-(2-methylbiphenyl-3-yl)vinyl)benzyl)-3-hydroxypiperidin-2-carboxylate]
0.78 | Cc1c(/C=C/c2ccc(CN3CCCC(O)C3C(=O)O)cc2F)cccc1-c1ccccc1 (stereo not shown) [Compound 21, (E)-3-Hydroxy-1-(3-fluoro-4-(2-(2-methylbiphenyl-3-yl)vinyl)benzyl)piperid in-2-carboxylic Acid]
0.55 | Cc1cc(CN2CCCC(O)C2CO)ccc1/C=C/c1cccc(-c2ccccc2)c1C (stereo not shown) [Compound 22, (E)-2-Hydroxymethyl-1-(3-methyl-4-(2-(2-methylbiphenyl-3-yl)vinyl)benzyl)piperidin-3-ol]
0.69 | Cc1c(/C=C/c2ccc(CN3CCCC(O)C3CO)cc2Cl)cccc1-c1ccccc1 (stereo not shown) [Compound 23, (E)-2-Hydroxymethyl-1-(3-chloro-4-(2-(2-methylbiphenyl-3-yl)vinyl)benzyl) piperidin-3-ol]
> 10 | Cc1c(/C=C/c2ccc(CN3CCCC(O)C3C(N)=O)cc2F)cccc1-c1ccccc1 (stereo not shown) [Compound 24, (E)-1-(3-Fluoro-4-(2-(2-methylbiphenyl-3-yl)vinyl)benzyl)-3-hydroxypiperidin-2-carboxamide]
1.3 | Cc1cc(CN2CCC[C@H](O)[C@@H]2C(N)=O)ccc1/C=C/c1cccc(-c2ccccc2)c1C [Compound 26, (2R,3S,E)-3-Hydroxy-1-(3-methyl-4-(2-(2-methylbiphenyl-3-yl)vinyl)benzyl)piperidin-2-carboxamide]
0.92 | Cc1cc(CN2CCC[C@@H](O)[C@@H]2C(N)=O)ccc1/C=C/c1cccc(-c2ccccc2)c1C [Compound 27, (2R,3R,E)-3-Hydroxy-1-(3-methyl-4-(2-(2-methylbiphenyl-3-yl)vinyl)benzyl)piperidin-2-carboxamide]
2.16 | Cc1cc(CN2CCCC(O)C2C(=O)O)ccc1C#Cc1cccc(-c2ccccc2)c1C (stereo not shown) [Compound 28, 1-(3-Methyl-4-((2-methylbiphenyl-3-yl)ethynyl)benzyl)-3-hydroxypiperidin-2-carboxylic Acid]
2.82 | Cc1c(C#Cc2ccc(CN3CCCC(O)C3C(=O)O)cc2F)cccc1-c1ccccc1 (stereo not shown) [Compound 29, 1-(3-Fluoro-4-((2-methylbiphenyl-3-yl)ethynyl)benzyl)-3-hydroxypiperidin-2-carboxylic Acid]
0.46 | COc1cc(/C=C/c2cccc(-c3ccccc3)c2C)cc(OC)c1CN1CCCC(O)C1C(=O)O (stereo not shown) [Compound 30, (E)-1-(2,6-Dimethoxy-4-(2-(2-methylbiphenyl-3-yl)vinyl)benzyl)-3-hydroxy piperidin-2-carboxylic Acid]
